One assay concerns Pyricularia oryzae. It counts as in vivo.
In a further assay the test system is Sphaerotheca fuliginea. The assay can be described thus: Cucumber powdery mildew preventive test. It counts as in vivo. The protocol: In a greenhouse, cucumber (variety: Sagamihanshiro) planted in a plastic pot having a diameter of 5 cm was grown to the 3rd to 5th-leaf stage. Spray was carried out in the same manner as in Test example 1, and 3 days after the spray, a conidia suspension prepared from Sphaerotheca fuliginea were inoculated on the leaf surface. After inoculation, the pots were placed in a thermostatic greenhouse (20 to 25° C.), and controlling effects were examined after 7 days from the inoculation. In the examination, a ratio of lesion area occupied per one leaf of cucumber was determined according to the same index as in Test example 1, and the control value and the theoretical value according to Colby's formula were similarly calculated.
Wettable powder prepared in compliance with Comparative Preparation Example 4 containing the compounds indicated in Table 7-9 were sprayed to the cucumber leaves, a conidiospore suspension prepared from Sphaerotheca fuliginea was inoculated onto the plants, and the controlling effects were examined in a manner similar to Test Example 6.

Another assay has as its system Botrytis cinerea. The settings on record: in vivo.
Where [1] appears, read: Table 3-4, group b ingredient alone, treatment concentration 10 + 10 ppm.
Setting [2] is: Table 3-5 (Comparative Example 2), treatment concentration 0.4 ppm.
Setting [3] is: Table 3-2, treatment concentration 10 ppm.
Where [4] appears, read: Table 3-3, treatment concentration 50 ppm.
The mark [5] stands for this setting: Table 3-4, group b ingredient alone, treatment concentration 10 + 2 ppm.
Setting [6] is: Table 3-3, treatment concentration 10 ppm.

Read-outs that look alike come from different tables or passages of the source.

On to `CSC(=O)c1cccc2nnsc12` [Acibenzolar-S-methyl (b-72), Acibenzolar-S-methyl], for which the Preventive value is 60 in the assay on Pyricularia oryzae (setting [1]) and 33 in the assay with Sphaerotheca fuliginea (Table 7-7, treatment concentration 2 ppm, 7 days after inoculation).

For `Cn1cc(C(=O)Nc2ccc(F)cc2-c2ccc(Cl)c(Cl)c2)c(C(F)F)n1` [Bixafen (b-4), Bixafen], the Preventive value in the assay on Pyricularia oryzae (setting [1]) and with Botrytis cinerea was 33 in each case.

Turning to `CCC1(C(=O)N[C@H](C)c2ccc(Cl)cc2)C(C)C1(Cl)Cl` (stereo partly drawn) [Carpropamid], the Preventive value amounted to 67 in the assay with Pyricularia oryzae (setting [2]), 17 with Botrytis cinerea and 33 in the assay with Sphaerotheca fuliginea (in vivo).

With `C[C@@H](NC(=O)C(C#N)C(C)(C)C)c1ccc(Cl)cc1Cl` (stereo partly drawn) [Diclocymet], the Preventive value turned out to be 67 in the assay on Pyricularia oryzae (setting [2]), 17 in the assay on Botrytis cinerea and 40 in the assay with Sphaerotheca fuliginea (in vivo).

Regarding `CNC(=O)/C(=N/OC)c1ccccc1COc1cc(C)ccc1C` [Dimoxystrobin (b-52), Dimoxystrobin], the Preventive value in the assay on Pyricularia oryzae (setting [3]) is on record as 73; in the assay on Botrytis cinerea, 17. This molecule also had a Control value in the assay on Sphaerotheca fuliginea (in vivo) of 60.

On to `O=C(NCCc1ncc(C(F)(F)F)cc1Cl)c1ccccc1C(F)(F)F` [Fluopyram (b-43), Fluopyram], for which the Preventive value in the assay with Pyricularia oryzae (setting [1]) and in the assay on Botrytis cinerea was 40 in each case.

For the molecule `CO/N=C(/C1=NOCCO1)c1ccccc1Oc1ncnc(Oc2ccccc2Cl)c1F` [Fluoxastrobin (b-51), Fluoxastrobin], the figures for the Preventive value in the assay on Pyricularia oryzae (setting [3]) and in the assay with Botrytis cinerea were 60 and 40, respectively. This molecule returned a Control value in the assay on Sphaerotheca fuliginea (in vivo) of 60.

Take `CC(C)OC(=O)C(C(=O)OC(C)C)=C1SCCS1` [Isoprothiolane (b-71), Isoprothiolane]: the Preventive value in the assay with Pyricularia oryzae (setting [4]) is 50; in the assay with Sphaerotheca fuliginea (in vivo), 40.

Consider `O=C(Nc1ccccc1)N(Cc1ccc(Cl)cc1)C1CCCC1` [Pencycuron (b-76), Pencycuron], for which the Preventive value in the assay with Pyricularia oryzae (Table 3-3, treatment concentration 250 ppm) was determined as 40; in the assay with Sphaerotheca fuliginea (in vivo), 33.

With `CO/C=C(/C(=O)OC)c1ccccc1COc1cccc(C(F)(F)F)n1` [Picoxystrobin (b-16), Picoxystrobin], the Preventive value in the assay on Pyricularia oryzae (setting [5]) was 50.

Take `C=CCOC1=NS(=O)(=O)c2ccccc21` [Probenazole (b-73), Probenazole]: the values for the Preventive value in the assay with Pyricularia oryzae (setting [6]) and with Sphaerotheca fuliginea (in vivo) were 60 and 40, respectively.

With `OC(Cc1ccccc1Cl)(Cn1nc[nH]c1=S)C1(Cl)CC1` (stereo not drawn) [Prothioconazole (b-23), Prothioconazole], the Preventive value with Pyricularia oryzae (setting [1]) and in the assay with Botrytis cinerea was 33 throughout.

Regarding `COC(=O)N(OC)c1ccccc1COc1ccn(-c2ccc(Cl)cc2)n1` [Pyraclostrobin (b-19), Pyraclostrobin], the Preventive value in the assay on Pyricularia oryzae (setting [5]) is recorded as 40.

As to `Cc1cc(C)nc(Nc2ccccc2)n1` [Pyrimethanil (b-62), Pyrimethanil], the Preventive value in the assay with Pyricularia oryzae (Table 3-4, group b ingredient alone, treatment concentration printed 10 + 50 ppm) is 33; in the assay on Botrytis cinerea, 33.

`O=C1CCc2cccc3c2N1CC3` [Pyroquilon (b-104), Pyroquilon]: the Preventive value in the assay on Pyricularia oryzae (setting [4]) is recorded as 67; in the assay with Sphaerotheca fuliginea (in vivo), 7.

For the molecule `CC(=O)Oc1c(C)c(C)nc2c(F)cc(C(C)(C)C)cc12` [Tebufloquin (b-64), Tebufloquin], the values for the Preventive value with Pyricularia oryzae (setting [6]) and in the assay on Sphaerotheca fuliginea (in vivo) were 73 and 67, respectively.

As to `Cc1ccc(NC(=O)c2snnc2C)cc1Cl` [Tiadinil (b-45), Tiadinil], the Preventive value is recorded as 60 with Pyricularia oryzae (setting [6]) and 40 with Sphaerotheca fuliginea (in vivo).

Take `COP(=S)(OC)Oc1c(Cl)cc(C)cc1Cl` [Tolclofos-methyl]: the Preventive value in the assay on Pyricularia oryzae (in vivo) and in the assay on Sphaerotheca fuliginea (in vivo) was 33 in each case.

Turning to `CC(C)(C)C(O)C(Oc1ccc(Cl)cc1)n1cncn1` (stereo not drawn) [Triadimenol (b-33), Triadimenol], the Preventive value stood at 33 in the assay with Pyricularia oryzae (Table 3-4, group b ingredient alone, treatment concentration printed 10 + 250 ppm) and 17 in the assay with Botrytis cinerea.

Regarding `CON=C(C(=O)OC)c1ccccc1CON=C(C)c1cccc(C(F)(F)F)c1` [Trifloxystrobin (b-55), Trifloxystrobin], the Preventive value with Pyricularia oryzae (setting [5]) is listed as 57; with Botrytis cinerea, 33.
